Reference: ChEMBL document CHEMBL3992506, “An in-tether sulfoxide chiral center influences the biophysical properties of the N-capped peptides” (Bioorg Med Chem, 2017)
Numbered stars: 1 amine (or outer) side, 2 acyl side, 3 side chain; on linkers, the order of the positions; unused ones are H or OH. Bridge positions count the residues as written; N and C are the ends. Square brackets hold non-standard residues; d marks the D form. Peptide text beside a SMILES is read from it. * marks the point of attachment. 5FAM = O=C1OC2(c3ccc(O)cc3Oc3cc(O)ccc32)c2ccc(C(=O)*)cc21; X1 = O=C(CN(CC[*:3])[*:1])[*:2]; Mpa = O=C(O)CCS

Legend:
Estrogen receptor = biological target: T1, Estrogen receptor (Homo sapiens, UniProt P03372); experiment: Binding affinity to recombinant human ER-alpha LBD (301 to 553 residues) expressed in Escherichia coli BL21(DE3) after 1 hr by fluorescence polarization assay
T1 sequence (P03372 whole entry): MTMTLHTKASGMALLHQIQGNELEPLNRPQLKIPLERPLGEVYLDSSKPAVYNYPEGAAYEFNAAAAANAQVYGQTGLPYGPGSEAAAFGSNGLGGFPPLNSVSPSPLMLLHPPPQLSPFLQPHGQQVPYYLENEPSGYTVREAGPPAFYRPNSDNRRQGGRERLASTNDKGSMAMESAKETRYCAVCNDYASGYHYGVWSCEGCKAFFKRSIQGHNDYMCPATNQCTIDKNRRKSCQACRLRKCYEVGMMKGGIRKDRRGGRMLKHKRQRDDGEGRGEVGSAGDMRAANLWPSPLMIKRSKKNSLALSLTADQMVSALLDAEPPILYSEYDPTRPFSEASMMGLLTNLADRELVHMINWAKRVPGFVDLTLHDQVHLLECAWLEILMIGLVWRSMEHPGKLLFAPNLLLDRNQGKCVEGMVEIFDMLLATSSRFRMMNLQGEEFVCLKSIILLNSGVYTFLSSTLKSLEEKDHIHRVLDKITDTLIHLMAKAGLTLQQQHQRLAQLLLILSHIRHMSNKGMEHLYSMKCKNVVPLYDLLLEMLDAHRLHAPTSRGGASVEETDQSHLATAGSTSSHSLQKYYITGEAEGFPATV

[1] = Stability assessed as trypsin (unknown origin)-mediated compound hydrolysis by measuring compound half life at 250 uM at 37 degC by LC-MS/MS method; assay type: ADME; details: human
[2] = Drug uptake in cytoplasm of HEK293T cells at 10 uM after 16 hrs by DAPI staining based confocal microscopic method; assay type: ADME, cell-based; details: human
[3] = Drug uptake in HEK293T cells at 10 uM after 4 hrs by flow cytometry; assay type: ADME, cell-based; details: human, hek-293t

Compound | Kd (Estrogen receptor) [µM] | t1/2 [1] [min] | also measured
CC[C@H](C)[C@H](NC(=O)CNC(=O)[C@H](CCCCNC(=O)c1ccc2c(c1)C(=O)OC21c2ccc(O)cc2Oc2cc(O)ccc21)NC(=O)[C@@H](N)CCCNC(=N)N)C(=O)N[C@@H](CC(C)C)C(=O)N[C@@H](CCCNC(=N)N)C(=O)N[C@@H](CCCNC(=N)N)C(=O)N[C@@H](CC(C)C)C(=O)N[C@@H](CC(C)C)C(=O)N[C@@H](CCC(N)=O)C(=O)NCC(=O)N[C@@H](Cc1c[nH]c2ccccc12)C(=O)O (H-RK(5FAM)GILRRLLQGW-OH) | 0.162 | – | –
CC[C@H](C)[C@H](NC(=O)CN1CC[S+]([O-])CCC(=O)N[C@@H](CCCNC(=N)N)C(=O)N[C@@H](CCCCN)C1=O)C(=O)N[C@@H](CC(C)C)C(=O)N[C@@H](CCCNC(=N)N)C(=O)N[C@@H](CCCNC(=N)N)C(=O)N[C@@H](CC(C)C)C(=O)N[C@@H](CC(C)C)C(=O)N[C@@H](CCC(N)=O)C(=O)NCC(=O)N[C@@H](Cc1c[nH]c2ccccc12)C(N)=O (single isomer, unassigned; isomer 2) | – | 2.1 | –
CC[C@H](C)[C@H](NC(=O)CN1CC[S+]([O-])CCC(=O)N[C@@H](CCCNC(=N)N)C(=O)N[C@@H](CCCCN)C1=O)C(=O)N[C@@H](CC(C)C)C(=O)N[C@@H](CCCNC(=N)N)C(=O)N[C@@H](CCCNC(=N)N)C(=O)N[C@@H](CC(C)C)C(=O)N[C@@H](CC(C)C)C(=O)N[C@@H](CCC(N)=O)C(=O)NCC(=O)N[C@@H](Cc1c[nH]c2ccccc12)C(N)=O (stereo in doubt) | – | 5.9 | –

Continued, in another order:

Kd (Estrogen receptor) [µM] | t1/2 [1] [min] | Compound | also measured
0.212 | – | CC[C@H](C)[C@H](NC(=O)CN1CCSCCC(=O)N[C@@H](CCCNC(=N)N)C(=O)N[C@@H](CCCCNC(=O)c2ccc3c(c2)C(=O)OC32c3ccc(O)cc3Oc3cc(O)ccc32)C1=O)C(=O)N[C@@H](CC(C)C)C(=O)N[C@@H](CCCNC(=N)N)C(=O)N[C@@H](CCCNC(=N)N)C(=O)N[C@@H](CC(C)C)C(=O)N[C@@H](CC(C)C)C(=O)N[C@@H](CCC(N)=O)C(=O)NCC(=O)N[C@@H](Cc1c[nH]c2ccccc12)C(N)=O ([Mpa]RK(5FAM)[X1]ILRRLLQGW-NH2; thioether 1-4) | –
0.183 | – | CC[C@H](C)[C@H](NC(=O)CN1CC[S+]([O-])CCC(=O)N[C@@H](CCCNC(=N)N)C(=O)N[C@@H](CCCCNC(=O)c2ccc3c(c2)C(=O)OC32c3ccc(O)cc3Oc3cc(O)ccc32)C1=O)C(=O)N[C@@H](CC(C)C)C(=O)N[C@@H](CCCNC(=N)N)C(=O)N[C@@H](CCCNC(=N)N)C(=O)N[C@@H](CC(C)C)C(=O)N[C@@H](CC(C)C)C(=O)N[C@@H](CCC(N)=O)C(=O)NCC(=O)N[C@@H](Cc1c[nH]c2ccccc12)C(N)=O (stereo in doubt; form 1) | –
0.386 | – | CC[C@H](C)[C@H](NC(=O)CN1CC[S+]([O-])CCC(=O)N[C@@H](CCCNC(=N)N)C(=O)N[C@@H](CCCCNC(=O)c2ccc3c(c2)C(=O)OC32c3ccc(O)cc3Oc3cc(O)ccc32)C1=O)C(=O)N[C@@H](CC(C)C)C(=O)N[C@@H](CCCNC(=N)N)C(=O)N[C@@H](CCCNC(=N)N)C(=O)N[C@@H](CC(C)C)C(=O)N[C@@H](CC(C)C)C(=O)N[C@@H](CCC(N)=O)C(=O)NCC(=O)N[C@@H](Cc1c[nH]c2ccccc12)C(N)=O (stereo in doubt; form 2) | Drug uptake [2]: Active; Drug uptake [3]: Active
